Reference: publication PMC10799341, “Carnosol ameliorated cancer cachexia-associated myotube atrophy by targeting P5CS and its downstream pathways” (Frontiers in Pharmacology, 2024)

What was measured:
GFP-Aldh18a1 (P5CS) = target: T1, GFP-Aldh18a1 (P5CS) (Mus musculus, UniProt Q9Z110); assay: microscale thermophoresis (Monolith NT.[…]); type: binding
T1 construct: GFP fusion from plasmid, tag kept; expressed in 293T cells, used as NP40 lysate
T1 sequence (Q9Z110 1-795): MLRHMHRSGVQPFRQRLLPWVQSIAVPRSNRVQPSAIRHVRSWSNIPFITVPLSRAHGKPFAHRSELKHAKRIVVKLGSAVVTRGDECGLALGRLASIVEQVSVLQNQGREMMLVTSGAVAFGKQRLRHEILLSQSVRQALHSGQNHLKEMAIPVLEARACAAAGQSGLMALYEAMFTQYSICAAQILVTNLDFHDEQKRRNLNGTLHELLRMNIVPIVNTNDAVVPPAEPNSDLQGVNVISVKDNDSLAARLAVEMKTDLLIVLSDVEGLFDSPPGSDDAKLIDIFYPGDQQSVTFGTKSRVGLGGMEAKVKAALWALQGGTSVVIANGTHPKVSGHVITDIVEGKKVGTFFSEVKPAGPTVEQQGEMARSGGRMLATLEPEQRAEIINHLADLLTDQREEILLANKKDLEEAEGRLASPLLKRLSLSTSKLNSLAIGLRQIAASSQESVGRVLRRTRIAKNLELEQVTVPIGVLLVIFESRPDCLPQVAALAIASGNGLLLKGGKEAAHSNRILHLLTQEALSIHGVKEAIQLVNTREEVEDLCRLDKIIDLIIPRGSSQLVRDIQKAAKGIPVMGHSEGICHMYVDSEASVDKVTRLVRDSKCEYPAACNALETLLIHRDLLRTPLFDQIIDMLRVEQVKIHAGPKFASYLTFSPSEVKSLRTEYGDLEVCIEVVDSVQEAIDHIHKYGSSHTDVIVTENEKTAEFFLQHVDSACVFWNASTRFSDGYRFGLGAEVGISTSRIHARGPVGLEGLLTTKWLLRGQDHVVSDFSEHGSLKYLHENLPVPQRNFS

[1] = target: T2, P5CS (Aldh18a1), endogenous in C2C12 myotubes (Mus musculus, UniProt Q9Z110); assay: CETSA, Western blot; type: cell-based; conditions: intact C2C12 myotubes, 20 μM carnosol, 1 h; NP40 lysate heated 5 min
T2 construct: native endogenous protein in C2C12 myotubes; no tag; detected by Western blot
T2 sequence (Q9Z110 1-795): T1 sequence (Q9Z110 1-795)

[2] = target: T3, P5CS, endogenous in H9c2 cardiomyocytes (Rattus norvegicus, UniProt A0A8I6AAN3); assay: CETSA, Western blot; type: biochemical; conditions: H9c2 cell lysate, 20 μM carnosol, 30 min room temperature then 1 h at 4 °C; heated 5 min
T3 construct: gene Aldh18a1; native endogenous protein in H9c2 cell lysate; no tag; detected by Western blot
T3 sequence (A0A8I6AAN3 1-795): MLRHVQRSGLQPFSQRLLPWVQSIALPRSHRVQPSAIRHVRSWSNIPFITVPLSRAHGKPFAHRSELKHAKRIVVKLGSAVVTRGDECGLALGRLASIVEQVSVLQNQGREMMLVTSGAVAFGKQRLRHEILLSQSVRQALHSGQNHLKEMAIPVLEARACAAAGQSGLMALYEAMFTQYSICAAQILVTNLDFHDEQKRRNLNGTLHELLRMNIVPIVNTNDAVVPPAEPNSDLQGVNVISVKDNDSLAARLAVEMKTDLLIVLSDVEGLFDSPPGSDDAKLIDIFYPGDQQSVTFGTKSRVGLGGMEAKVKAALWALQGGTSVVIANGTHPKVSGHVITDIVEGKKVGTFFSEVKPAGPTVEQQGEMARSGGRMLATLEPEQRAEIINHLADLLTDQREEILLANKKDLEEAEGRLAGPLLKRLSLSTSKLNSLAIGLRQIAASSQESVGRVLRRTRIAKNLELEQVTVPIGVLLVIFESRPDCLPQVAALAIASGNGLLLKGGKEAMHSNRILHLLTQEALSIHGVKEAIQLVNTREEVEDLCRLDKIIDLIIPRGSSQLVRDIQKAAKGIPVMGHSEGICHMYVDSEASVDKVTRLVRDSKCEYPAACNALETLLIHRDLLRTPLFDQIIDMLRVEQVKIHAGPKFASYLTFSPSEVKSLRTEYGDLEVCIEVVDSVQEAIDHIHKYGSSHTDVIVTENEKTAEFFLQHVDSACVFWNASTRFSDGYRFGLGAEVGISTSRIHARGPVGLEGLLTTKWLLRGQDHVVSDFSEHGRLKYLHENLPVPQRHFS

SMILES: CC(C)c1cc2c(c(O)c1O)[C@@]13CCCC(C)(C)[C@@H]1C[C@@H]2OC3=O [carnosol]
- Kd (GFP-Aldh18a1 (P5CS)): 17.4 µM
- thermal stability [1]: the thermal stability of P5CS in C2C12 was improved after the incubation of myotubes with carnosol
- thermal stability [2]: H9c2 cardiomyocytes also showed similar results that carnosol increased the thermal stability of P5CS
